# Source: patent US4032659A (priority 1975, dated 1977)
# Like-named read-outs stand apart in the source and are kept apart here.
# Legend:
# [1] = test system: virus infections; test: Antiviral screening program, several viruses; details: mouse, in vivo
# [2] = test system: Herpes virus; format: in vivo, mouse; details: oral
# [3] = test system: Influenza PR 8 virus; test: Chemoprophylaxis of Influenza PR 8 virus infection in mice; format: in vivo, mouse
# [4] = test system: Vaccinia virus; format: in vivo; details: scarified rabbit skin
# [5] = test system: Herpes virus; test: Herpes virus in eggs (chick embryo survival); format: in vivo, chicken eggs; details: for Deaths on day 1 / Deaths on day 2 / Deaths on day 3 / Total Deaths 4th Day / Deaths on day 4: 12 eggs
# [6] = test system: Influenza B Massachusetts virus; test: Chemoprophylaxis of Influenza B Massachusetts virus infection in mice; format: in vivo, mouse; details: oral
# Protocol: The activity of four compounds on Influenza B Mass. was tested in mice.
# A portion of a commercially available sample of amantadine was recrystallized from isopropanol. The activity of the material against Influenza B Mass. was tested for the sample as obtained, the recrystallized portion, and the mother liquor obtained from recrystallizing the portion.
# [7] = test system: Influenza A PR8 virus; set-up: dose or concentration left out as unconfirmed; details: cited from earlier work
# [8] = subcutaneous, total dose .0005 μg
smiles,measurement,setting,value
"CCC(C)=NNC(N)=S [2-Butanone, thiosemicarbazone, 2-butanone, thiosemicarbazone]",activity (in words),[1],one of the most active compounds that has been studied to date
same,No. animals surviving when 17/20 controls are dead,[2]; total dose .000005 μg,0
same,Survivors,[2]; total dose .000005 μg,0
same,No. animals surviving when 17/20 controls are dead,[2]; total dose .00005 μg,4
same,No. animals surviving when 17/20 controls are dead,[2]; total dose .0005 μg,5
same,Survivors,[2]; total dose .0005 μg,4
same,No. animals surviving when 17/20 controls are dead,[2]; total dose .05 μg,0
same,Survivors,[2]; total dose .05 μg,0
same,Survivors,"[3]; drinking water 24 h post-infection only, first printed value (concentration column unclear)",0
same,Survivors,"[3]; drinking water 24 h pre- and 24 h post-infection, 0.5 mg/ml",1
same,No. animals surviving after 6 days,"[3]; oral, total dose .000005 μg",6
same,No. animals surviving after 7 days,"[3]; oral, total dose .000005 μg",4
same,No. animals surviving after 6 days,"[3]; oral, total dose .00005 μg",5
same,No. animals surviving after 7 days,"[3]; oral, total dose .00005 μg",8
same,No. animals surviving when 19/20 of controls are dead,"[3]; oral, total dose .00005 μg",4
same,Survivors,"[3]; oral, total dose .00005 μg",4
same,No. animals surviving when 19/20 of controls are dead,"[3]; oral, total dose .0005 μg",1
same,Survivors,"[3]; oral, total dose .0005 μg",1
same,No. animals surviving when 19/20 of controls are dead,"[3]; oral, total dose .005 μg",0
same,Survivors,"[3]; subcutaneous, total dose .000005 μg",0
same,Survivors,"[3]; subcutaneous, total dose .00005 μg",0
same,No. animals surviving after 6 days,[3]; [8],1
same,Survivors,[3]; [8],1
same,Survivors,"[3]; subcutaneous, total dose .005 μg",0
same,effect on pox formation,[4],variable
same,"No. Hatched, total",[5]; all doses,5
same,"No. Living Longer Than Controls, total",[5]; all doses,12
same,Deaths on day 1,[5]; dose 2 μg,1
same,Deaths on day 2,[5]; dose 2 μg,5
same,Deaths on day 3,[5]; dose 2 μg,3
same,Total Deaths 4th Day,[5]; dose 2 μg,9
same,Deaths on day 2,[5]; dose 20 μg,5
same,Deaths on day 3,[5]; dose 20 μg,1
same,Deaths on day 4,[5]; dose 20 μg,2
same,Total Deaths 4th Day,[5]; dose 20 μg,8
same,Deaths on day 1,[5]; dose .00005 μg,2
same,Deaths on day 2,[5]; dose .00005 μg,4
same,Deaths on day 3,[5]; dose .00005 μg,5
same,Total Deaths 4th Day,[5]; dose .00005 μg,11
same,Deaths on day 1,[5]; dose .0005 μg,1
same,Deaths on day 2,[5]; dose .0005 μg,5
same,Deaths on day 3,[5]; dose .0005 μg,3
same,Deaths on day 4,[5]; dose .0005 μg,1
same,Total Deaths 4th Day,[5]; dose .0005 μg,10
same,Deaths on day 1,[5]; dose .005 μg,2
same,Deaths on day 2,[5]; dose .005 μg,4
same,Deaths on day 3,[5]; dose .005 μg,2
same,Deaths on day 4,[5]; dose .005 μg,3
same,Total Deaths 4th Day,[5]; dose .005 μg,11
same,Deaths on day 1,[5]; dose .05 μg,2
same,Deaths on day 2,[5]; dose .05 μg,6
same,Deaths on day 3,[5]; dose .05 μg,3
same,Total Deaths 4th Day,[5]; dose .05 μg,11
same,Deaths on day 1,[5]; dose .5 μg,1
same,Deaths on day 2,[5]; dose .5 μg,3
same,Deaths on day 3,[5]; dose .5 μg,6
same,Deaths on day 4,[5]; dose .5 μg,2
same,Total Deaths 4th Day,[5]; dose .5 μg,12
same,No. animals surviving after 5 days,[6]; total dose .000005 μg,6
same,No. animals surviving when 100% controls are dead,[6]; total dose .000005 μg,3
same,Survivors,[6]; total dose .000005 μg,2
same,No. animals surviving after 5 days,[6]; total dose .00005 μg,8
same,No. animals surviving when 100% controls are dead,[6]; total dose .00005 μg,3
same,Survivors,[6]; total dose .00005 μg,2
same,No. animals surviving after 5 days,[6]; total dose .0005 μg,7
same,No. animals surviving when 100% controls are dead,[6]; total dose .0005 μg,1
same,Survivors,[6]; total dose .0005 μg,0
same,No. animals surviving after 5 days,[6]; total dose .005 μg,4
same,No. animals surviving when 100% controls are dead,[6]; total dose .005 μg,0
same,Survivors,[6]; total dose .005 μg,0
same,No. animals surviving after 5 days,[6]; total dose .05 μg,4
same,No. animals surviving when 100% controls are dead,[6]; total dose .05 μg,2
same,Survivors,[6]; total dose .05 μg,0
same,No. animals surviving after 5 days,[6]; total dose .5 μg,5
same,No. animals surviving when 100% controls are dead,[6]; total dose .5 μg,4
same,Survivors,[6]; total dose .5 μg,1
"CC(C=NNC(=N)N)=NNC(=N)N [methyl-GAG, Methylgloxal-bis-guanylhydrazone]",inhibition,[7]; lower limit,Ninety
same,Toxicity,[7]; upper limit,toxic
